Molecular target: Human immunodeficiency virus type 1 integrase (Human immunodeficiency virus 1, UniProt Q7ZJM1)
Test: Inhibition of Human immunodeficiency virus 1 integrase 3'-processing activity expressed in Escherichia coli using 21-mer DNA and Mg2+ after 2 hrs by polyacrylamide gel electrophoresis

Chain of Human immunodeficiency virus type 1 integrase (Q7ZJM1 whole entry): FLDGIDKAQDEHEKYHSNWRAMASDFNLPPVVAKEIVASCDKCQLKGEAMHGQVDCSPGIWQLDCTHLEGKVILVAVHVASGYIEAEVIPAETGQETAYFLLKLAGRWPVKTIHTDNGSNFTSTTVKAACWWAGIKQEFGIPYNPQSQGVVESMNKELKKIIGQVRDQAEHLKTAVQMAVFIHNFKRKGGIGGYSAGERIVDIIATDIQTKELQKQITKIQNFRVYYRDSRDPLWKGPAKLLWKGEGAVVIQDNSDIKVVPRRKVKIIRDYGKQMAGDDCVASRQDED

Row | SMILES | IC50 [nM]
1 | CCCCCCCC/C=C\CCCCCCCC(=O)NCCCOCC(O)COP(=O)(O)O[C@H]1C[C@H](n2cc(C)c(=O)[nH]c2=O)O[C@@H]1COP(=O)(O)O[C@H]1C[C@H](n2cnc3c(=O)[nH]c(N)nc32)O[C@@H]1COP(=O)(O)O[C@H]1C[C@H](n2cc(C)c(=O)[nH]c2=O)O[C@@H]1COP(=O)(O)O[C@H]1C[C@H](n2cnc3c(=O)[nH]c(N)nc32)O[C@@H]1COP(=O)(O)O[C@H]1C[C@H](n2cc(C)c(=O)[nH]c2=O)O[C@@H]1COP(=O)(O)O[C@H]1C[C@H](n2cc(C)c(=O)[nH]c2=O)O[C@@H]1COP(=O)(O)O[C@H]1C[C@H](n2cc(C)c(=O)[nH]c2=O)O[C@@H]1COP(=O)(O)O[C@H]1C[C@H](n2cc(C)c(=O)[nH]c2=O)O[C@@H]1COP(=O)(O)O[C@H]1C[C@H](n2cc(C)c(=O)[nH]c2=O)O[C@@H]1COP(=O)(O)O[C@H]1C[C@H](n2cnc3c(=O)[nH]c(N)nc32)O[C@@H]1COP(=O)(O)O[C@H]1C[C@H](n2cnc3c(=O)[nH]c(N)nc32)O[C@@H]1COP(=O)(O)O[C@@H]1C[C@@H](CO)N(C(=O)CCCCCNC(=O)c2ccc(C(=O)O)c(-c3c4ccc(=O)cc-4oc4cc(O)ccc34)c2)C1 (stereo partly drawn) | 20
2 | COc1cc2c(-c3cc(C(=O)NCCCCCCOP(=O)(O)OC[C@H]4O[C@@H](n5cnc6c(=O)[nH]c(N)nc65)C[C@@H]4OP(=O)(O)OC[C@H]4O[C@@H](n5cnc6c(=O)[nH]c(N)nc65)C[C@@H]4OP(=O)(O)OC[C@H]4O[C@@H](n5cc(C)c(=O)[nH]c5=O)C[C@@H]4OP(=O)(O)OC[C@H]4O[C@@H](n5cc(C)c(=O)[nH]c5=O)C[C@@H]4OP(=O)(O)OC[C@H]4O[C@@H](n5cc(C)c(=O)[nH]c5=O)C[C@@H]4OP(=O)(O)OC[C@H]4O[C@@H](n5cc(C)c(=O)[nH]c5=O)C[C@@H]4OP(=O)(O)OC[C@H]4O[C@@H](n5cc(C)c(=O)[nH]c5=O)C[C@@H]4OP(=O)(O)OC[C@H]4O[C@@H](n5cnc6c(=O)[nH]c(N)nc65)C[C@@H]4OP(=O)(O)OC[C@H]4O[C@@H](n5cc(C)c(=O)[nH]c5=O)C[C@@H]4OP(=O)(O)OC[C@H]4O[C@@H](n5cnc6c(=O)[nH]c(N)nc65)C[C@@H]4OP(=O)(O)OC[C@H]4O[C@@H](n5cc(C)c(=O)[nH]c5=O)C[C@@H]4O)ccc3C(=O)O)c3cc(OC)c(=O)c(Cl)c-3oc2c(Cl)c1O | 310
3 | Cc1cn([C@H]2C[C@H](OP(=O)(O)OC[C@H]3O[C@@H](n4cc(C)c(=O)[nH]c4=O)C[C@@H]3OP(=O)(O)OC[C@H]3O[C@@H](n4cc(C)c(=O)[nH]c4=O)C[C@@H]3OP(=O)(O)OC[C@H]3O[C@@H](n4cnc5c(=O)[nH]c(N)nc54)C[C@@H]3OP(=O)(O)OC[C@H]3O[C@@H](n4cc(C)c(=O)[nH]c4=O)C[C@@H]3OP(=O)(O)OC[C@H]3O[C@@H](n4cnc5c(=O)[nH]c(N)nc54)C[C@@H]3OP(=O)(O)OC[C@H]3O[C@@H](n4cc(C)c(=O)[nH]c4=O)C[C@@H]3O)[C@@H](COP(=O)(O)O[C@H]3C[C@H](n4cc(C)c(=O)[nH]c4=O)O[C@@H]3COP(=O)(O)O[C@H]3C[C@H](n4cc(C)c(=O)[nH]c4=O)O[C@@H]3COP(=O)(O)O[C@H]3C[C@H](n4cnc5c(=O)[nH]c(N)nc54)O[C@@H]3COP(=O)(O)O[C@H]3C[C@H](n4cnc5c(=O)[nH]c(N)nc54)O[C@@H]3COP(=O)(O)O[C@@H]3C[C@@H](CO)N(C(=O)CCCCCNC(=O)c4ccc(C(=O)O)c(-c5c6ccc(=O)cc-6oc6cc(O)ccc56)c4)C3)O2)c(=O)[nH]c1=O | 320
